From EP2487171A1, “Dihydrobenzopyran, thiochroman, tetrahydroquinoleine and tetrahydronaphthalene derivatives and their use in anti-cancer therapy” (Université de Liège, priority 2011, dated 2012)

Tests used:
[1] = test system: human U373 glioma cell line; experiment: Quantitative videomicroscopy (computer-assisted phase-contrast microscopy); format: cell-based; details: U373 cells treated at the IC50 concentration from MTT, filmed for 72h; cytostatic versus cytotoxic effects
Excerpt: In addition, the inventors could establish that the compounds of the invention act through a non-apoptosis-related mechanism thanks to a unique experimental approach used by the inventors, i.e. computer-assisted phase-contrast microscopy (quantitative videomicroscopy), making them good candidates as anti-cancer drugs for treating apoptosis-resistant tumor or cancer cells and for overcoming problems linked to the known anti-cancer drugs.
As the MTT test is based on the mitochondria functions, we also investigated the effects of the compounds according to the invention on cell proliferation, migration and morphology by means of a cellular imaging approach (Debeir et al., Cytometry 60:29-40, 2004; Debeir et al., IEEE Trans Med Imaging 24:697-711, 2005) in the human U373 glioma cell line, which is apoptosis-resistant but autophagy-sensitive (Lefranc F et al., Neurosurgery 2008).
Cellular imaging relied on the use of computer-assisted phase-contrast microscopy making possible to film the behaviour of living cells in culture dishes for several days.
Cells were seeded in a 25-cm^2 flask at a low density, treated or not with the compounds of the invention (at their IC50 concentration determined previously by MTT tests) and filmed thereafter for a period of 72h. The experiment was conducted in triplicate.
The behaviour of the cells, in terms of morphology, growth and death were thus investigated. The effect on the overall growth was measured by counting the number of cells on the first (0h) and the last image (72h) of each film. The global growth ratio (GGR) was then deduced by dividing the number of cells on the last image by the number of cells on the first image. The ratio GGRtreated cells / GGRcontrol cells, was further calculated thereby obtaining a value that describes the effect of compounds of the present invention on the overall cell growth.
The methodology is fully described and validated in Debeir et al., 2008, Exp Cell Res 314:2985-2998 and Mathieu et al., 2009, J Cell Mol Med, Feb 20, 2009.
Thanks to the quantitative videomicroscopy (QVM) approach, we classified the compounds into 4 distinctive classes on the basis of their cytostatic versus cytotoxic effects (Table 3). • Class I: actually cytostatic for 3 days (< 10 % of cell death at the 3rd day) • Class II: cytostatic but becomes cytotoxic with < 10% cell death on the 2nd day and > 20% of cell death on the 3rd day • Class III: cytostatic but rapidly becomes cytotoxic with < 10% cell death on the 1st day, > 20% of cell death on the 2nd day and > 50% of cell death on the 3rd day • Class IV: cytotoxic (> 50% of cell death on the first day)
In Fig. 1a, compounds of example 14 (5 µM), example 19 (20 µM) and example 23 (5 µM) belong to QVM Class I because they display cytostatic effects on human U373 GBM cells during the whole duration of the experiment. Cytostatic effects mean that < 10 % of cell death was recorded at the end of the experiment, i.e. at the end of the 3rd day. QVM analyses enable the global growth ratio (GGR) to be calculated in each experiment. The GGR index is obtained by dividing the number of cells in the last image by the number of cells in the first image of the experiment, knowing that 1080 images are taken during the 72 h-period of observation. The ratio GGR^treated cells / GGR^control cells was further calculated thereby obtaining a value that describes the effect of compounds on the overall cell growth. Thus, a GGR index of 0.2 means that they remain only 20% of treated cells compare to the control cells at the end of the experiment.

[2] = test system: Astrocytes - Mouse normal brain cells; experiment: MTT colorimetric assay on normal astrocytes (bioselectivity); format: cell-based; details: Astrocyte, primocultures of astrocytes from newborn mice, 72h, read-out: Mean IC50 MTT values ± SEM (µM) Astrocytes - Mouse normal brain cells (II - 72h)
[3] = test system: three Human Glioma Cell Lines; experiment: MTT colorimetric assay, mean over the three glioma cell lines; format: cell-based; details: mean of the three human glioma cell lines, 72h (Table 2); read-out: Mean IC50 MTT values ± SEM (µM) Glioma - Human Brain cancer cells (I - 72h)
Description: (§1) Table 2: Bioselectivity determined by dividing the IC50 obtained with glioma cell lines by the IC50 obtained with normal astrocytes. Bioselectivity was determined only for those compounds whose mean + SEM values on the three human glioma cell lines were ≤ 20 µM.

[4] = test system: Hs683; experiment: MTT colorimetric assay, overall cell growth; format: cell-based; details: Homo sapiens, Hs 683; Hs683 cells, 72 hours of incubation; read-out: IC50 (µM) In Vitro Growth Inhibitory Concentrations (MTT Colorimetric Assay) Hs683
Description: (§2) The compounds and particularly dihydrobenzopyran, thiochroman, tetrahydroquinoleine and tetrahydronaphthalene derivatives of the invention were evaluated for their anti-proliferative effect (by means of the colorimetric MTT assay), in the following human glioblastoma cell-lines U373, T98G and Hs683 and in the mouse glioma cell line GL261. Normal brain cells (primocultures from newborn mice) were also used in order to determine the bioselectivity (B^N/C) of the compounds of interest, i.e. the ratio between the concentrations that inhibits 50% of the growth of brain cancer (C) cells (glioma cells) and the concentration that inhibits 50% of the growth of normal (N) brain cells (primocultures of astrocytes). The ideal situation to be reached is a bioselectivity of B^N/C > 10.
(§3) MTT tests were performed in order to rapidly, i.e. within 5 days, measure the effect of compounds of this invention on the overall cell growth. The test measured the number of metabolically active living cells that were able to transform the yellow product 3-(4,5-dimethylthiazol-2-yl)-2,5-diphenyl tetrazolium bromide (herein referred as MTT) into the blue product formazan dye by mitochondrial reduction. The amount of formazan obtained at the end of the experiment, measured by means of a spectrophotometer, is directly proportional to the number of living cells. Optical density determination thus enabled a quantitative measurement of the effect of the investigated compounds as compared to the control condition (untreated cells) and/or to other reference compounds.
(§4) Three human cancer cell lines were used in the following MTT tests.
(§5) To perform the assay, cells were allowed to grow in 96-well micro-wells with a flat bottom with an amount of 100 µl of cell suspension per well with 1,000 to 8,000 cells/well depending on the cell type used. Each cell line was seeded in its appropriate culture medium.
(§6) The detailed experimental procedure was the following: after a 24-hour period of incubation at 37°C, the culture medium was replaced by 100 µl of fresh medium in which the tested compound was previously dissolved, at the following molar concentrations: 10^-8 M, 5.10^-8 M, 10^-7 M, 5.10^-7 M, 10^-6 M, 5.10^-6 M, 10^-5 M, 5.10^-5 M and 10^-4 M. Each experiment was performed in sextuplicate (6 times).
(§7) After 72 hours of incubation at 37°C with (experimental conditions) or without (control condition) the compound to be tested, the medium was replaced by 100 µl MTT dissolved in RPMI (1640 without phenol red) at a concentration of 0.5 mg/ml. The micro-wells were subsequently incubated during 3 hours and a half at 37°C and centrifuged at 1300 rpm during 10 minutes. MTT was removed and formazan crystals formed were dissolved in 100 µl DMSO. The micro-wells were shaken for 5 minutes and read on a spectrophotometer at wavelengths of 570 nm (maximal formazan absorbance).
(§8) For each experimental condition, the mean optical density was calculated, allowing the determination of the percentage of remaining living cells in comparison to the control.

[5] = test system: Astrocytes - Mouse normal brain cells; experiment: MTT colorimetric assay on normal astrocytes (bioselectivity); format: cell-based
Description: as §1

[6] = test system: U373; experiment: MTT colorimetric assay, overall cell growth; format: cell-based; details: Homo sapiens, U373 MG; U373 cells, 72 hours of incubation; read-out: IC50 (µM) In Vitro Growth Inhibitory Concentrations (MTT Colorimetric Assay) U373
Description: as §2, §3, §4, §5, §6, §7, §8

[7] = test system: T98G; experiment: MTT colorimetric assay, overall cell growth; details: Homo sapiens, 72 h, read-out: IC50 (µM) In Vitro Growth Inhibitory Concentrations (MTT Colorimetric Assay) T98G;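 note: growth inhibition of the human glioblastoma line measured by MTT reduction to formazan, optical density read on a spectrophotometer at 570 nm, untreated cells as control, nine concentrations from 10 nM to 100 µM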
Description: The compounds and particularly dihydrobenzopyran, thiochroman, tetrahydroquinoleine and tetrahydronaphthalene derivatives of the invention were evaluated for their anti-proliferative effect (by means of the colorimetric MTT assay), in the following human glioblastoma cell-lines U373, T98G and Hs683 and in the mouse glioma cell line GL261. Normal brain cells (primocultures from newborn mice) were also used in order to determine the bioselectivity (B^N/C) of the compounds of interest, i.e. the ratio between the concentrations that inhibits 50% of the growth of brain cancer (C) cells (glioma cells) and the concentration that inhibits 50% of the growth of normal (N) brain cells (primocultures of astrocytes).
as §3, §4, §5, §6
The micro-wells were subsequently incubated during 3 hours and a half at 37°C and centrifuged at 1300 rpm during 10 minutes. MTT was removed and formazan crystals formed were dissolved in 100 µl DMSO. The micro-wells were shaken for 5 minutes and read on a spectrophotometer at wavelengths of 570 nm (maximal formazan absorbance).
as §8

## CC(C)(C)OC(=O)Nc1ccc2c(c1)C(NC(=O)Nc1ccc(C#N)cc1)CC(C)(C)O2 (racemic) [Example 15, R/S-N-4-cyanophenyl-N'-(6-tert-butoxycarbonylamino-3,4-dihydro-2,2-dimethyl-2H-1-benzopyran-4-yl)urea]
[1]
  QVM Class: I (Class I: actually cytostatic for 3 days (< 10 % of cell death at the 3rd day))
[2]
  IC50: > 200 µM
[3]
  IC50: 18 ± 5 µM
[4]
  IC50: 18 µM
[5]
  Bioselectivity (I / II): >10
[6]
  IC50: 10 µM
[7]
  IC50: 26 µM

## CC(C)(C)OC(=O)Nc1ccc2c(c1)C(NC(=O)Nc1cccc(Cl)c1)CC(C)(C)O2 (racemic) [Example 16, R/S-N-3-chlorophenyl-N'-(6-tert-butoxycarbonylamino-3,4-dihydro-2,2-dimethyl-2H-1-benzopyran-4-yl)urea]
[1]
  QVM Class: III (Class III: cytostatic but rapidly becomes cytotoxic with < 10% cell death on the 1st day, > 20% of cell death on the 2nd day and > 50% of cell death on the 3rd day)
[2]
  IC50: > 200 µM
[3]
  IC50: 17 ± 3 µM
[4]
  IC50: 12 µM
[5]
  Bioselectivity (I / II): >12
[6]
  IC50: 18 µM
[7]
  IC50: 20 µM

## CC(C)(C)OC(=O)Nc1ccc2c(c1)C(NC(=O)Nc1cccc([N+](=O)[O-])c1)CC(C)(C)O2 (racemic) [Example 23, R/S-N-3-nitrophenyl-N'-(6-tert-butoxycarbonylamino-3,4-dihydro-2,2-dimethyl-2H-1-benzopyran-4-yl)urea]
[1]
  QVM Class: I (Class I: actually cytostatic for 3 days (< 10 % of cell death at the 3rd day))
[2]
  IC50: < 40 µM
[3]
  IC50: 8 ± 4 µM
[4]
  IC50: 16 µM
[5]
  Bioselectivity (I / II): < 5
[6]
  IC50: 1 µM
[7]
  IC50: 7 µM

## CC(C)(C)OC(=O)Nc1ccc2c(c1)C(NC(=O)Nc1cc(Cl)cc(Cl)c1)CC(C)(C)O2 (racemic) [Example 26, R/S-N-3,5-dichlorophenyl-N'-(6-tert-butoxycarbonylamino-3,4-dihydro-2,2-dimethyl-2H-1-benzopyran-4-yl)urea]
[1]
  QVM Class: II (Class II: cytostatic but becomes cytotoxic with < 10% cell death on the 2nd day and > 20% of cell death on the 3rd day)
[2]
  IC50: ~40 µM
[3]
  IC50: 9 ± 2 µM
[4]
  IC50: 9 µM
[5]
  Bioselectivity (I / II): < 5
[6]
  IC50: 6 µM
[7]
  IC50: 12 µM

## CC(C)(C)OC(=O)Nc1ccc2c(c1)C(NC(=O)Nc1cc(C(F)(F)F)cc(C(F)(F)F)c1)CC(C)(C)O2 (racemic) [Example 29, R/S-N-3,5-di(trifluoromethyl)phenyl-N'-(6-tert-butoxycarbonylamino-3,4-dihydro-2,2-dimethyl-2H-1-benzopyran-4-yl)urea]
[1]
  QVM Class: I (Class I: actually cytostatic for 3 days (< 10 % of cell death at the 3rd day))
[2]
  IC50: ~20 µM
[3]
  IC50: 4 ± 1 µM
[4]
  IC50: 3 µM
[5]
  Bioselectivity (I / II): ∼ 5
[6]
  IC50: 4 µM
[7]
  IC50: 5 µM
